The values below come from patent publication US20180320177A1, “COMPOSITIONS AND METHODS FOR THE TREATMENT OF LIVER FIBROSIS” (UNIVERSITY OF CONNECTICUT, priority 2015, published 2018).

Molecules are shown by their SMILES. Entries after “also recorded” stand apart in the source; their conditions may differ.

For one test, the target named is T1, HMGB2 (Homo sapiens, UniProt P26583).
T1 sequence (P26583 1-209): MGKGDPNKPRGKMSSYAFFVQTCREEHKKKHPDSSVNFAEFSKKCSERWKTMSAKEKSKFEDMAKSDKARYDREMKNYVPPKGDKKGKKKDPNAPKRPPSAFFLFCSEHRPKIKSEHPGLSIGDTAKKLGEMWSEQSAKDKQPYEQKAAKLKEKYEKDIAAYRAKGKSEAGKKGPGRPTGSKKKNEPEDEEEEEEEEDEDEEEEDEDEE
Description: Western blot of HMGB2 protein in LX-2 and Huh7 cells treated with ICM. In kind it is cell-based. Also noted: endogenous in cells; host or cells: LX-2, Huh7. The note with it: for HMGB2 protein: fresh media every day for 3 days (FIG. 18 left). The method, then: Western Blotting: Total protein lysates were prepared from livers and cells in lysis buffer containing 50 mM Tris, pH 8.0, 1% Nonidet™ P-40, 150 mM NaCl, 0.5% sodium deoxycholate, 0.1% SDS with protease inhibitors (Thermo Fisher Scientific) and subjected to immunoblotting. Nuclear and cytoplasmic subcellular fractions were prepared using NE-PER nuclear and cytoplasmic extraction reagents (Pierce) according to the manufacturer's instructions. The blot was incubated with a primary antibody, followed by a secondary antibody conjugated to horseradish peroxidase. ECL kit (Pierce) was used to detect the reactivity. The following antibodies were obtained from Cell Signaling Technology: HMGB2, HMGB1, AKT, p-AKT, mTOR, p-mTOR, ERK1/2, pERK1/2, Raptor, Rictor, p53, p21, p-Bad, Smad4, p-Smad2/3, Lamin A/C, a-SMA, MMP2, MMP9, TIMP1, RhoA, Rho-GTP, Cdc42, Rac1/2/3. Anti-HA antibody and anti-beta actin antibody were purchased from Sigma and Santa Cruz Biotechnology, respectively.
Cell Lines The LX-2 human stellate cell line was maintained in Dulbecco's Modified Eagle's Medium (DMEM) supplemented with 2% fetal bovine serum (FBS), 100 IU/ml penicillin, and 100 μg/ml streptomycin. Human hepatocellular carcinoma (HCC) MHCC97H cells were maintained in DMEM supplemented with 10% FBS, 100 IU/ml penicillin, and 100 μg/ml streptomycin, 1 mM HEPES, 1 mM sodium pyruvate, 2 mM L-glutamine. Tumor-initiating (TIC) cells were obtained from Dr. Hidekazu Tsukamoto at University of Southern California and were maintained in 1:1 DMEM:F12 supplement with 100 U/ml penicillin and 100 μg/ml streptomycin, 2 mM glutamine, 20 ng/ml mouse EGF, 10 nM dexamethasone, 1× embryomax nucleotides. All the cells were maintained at 37° C. humidified atmosphere with 5% CO2. TIC cells were infected with Hmgb2 shRNA lentivirus for 48 hr, and treated with 500 ng/ml puromycin for 2 weeks. The stable cells were used for migration and invasion assay, as well as western blot.
(In general: Immunoblotting shows a protein as a band on a membrane.)

The next test addresses T2, HMGB2 protein (Mus musculus, UniProt P30681).
T2 construct: Total protein lysates were prepared from livers and cells in lysis buffer; from tissue; host or cells: mouse liver (C57BL/6J, CCl4 with or without ICM)
T2 sequence (P30681 1-210): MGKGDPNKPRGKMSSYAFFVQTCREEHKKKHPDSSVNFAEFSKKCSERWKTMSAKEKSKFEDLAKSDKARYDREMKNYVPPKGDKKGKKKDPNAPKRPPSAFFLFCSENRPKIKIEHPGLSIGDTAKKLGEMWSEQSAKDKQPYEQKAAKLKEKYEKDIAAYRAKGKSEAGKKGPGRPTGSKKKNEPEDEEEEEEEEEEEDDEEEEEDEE
The experiment in a line: Western blot of HMGB2 protein in liver of CCl4-treated mice. In kind it is in vivo. The protocol:
(§1) Animal Care: All animal care and experimental procedures were approved by the Institutional Animal Care and Use Committee at the University of Connecticut. Shp^−/− mice were described previously. Hmgb2^−/− mice were obtained from Dr. Stella Tsirka at Stony Brook University. C57BL/6J mice were purchased from Jackson Laboratory. All mice were maintained on a 12-h light/dark cycle with free access to food and water unless otherwise indicated. For CCl4 treatment, CCl4 (Sigma) was dissolved in corn oil and administered to mice at a dose of 850 μl/kg BW by intraperitoneal injection (IP) twice a week for 6 or 10 weeks with or without ICM. Age-matched control mice were treated with a corn oil vehicle. For CCl4+ICM treatment, mice were treated with CCl4 for 2 weeks and then ICM (Department of Pharmaceutical Sciences at UConn) was dissolved in PEG (Sigma) and treated with mice (10 mg/kg) every day for 4 or 8 weeks in combination with CCl4. To induce overexpression of HMGB2 in liver, AAV8-Hmgb2 or a control AAV8-GFP was given to mice by tail vein injection at a dose of 5×10^10 GC. To knockdown HMGB2 in mouse livers, AAV-shHmgb2 or a control AAV-shGFP was delivered to mice at a dose of 2×10^10 GC by tail vein injection. One week later, mice injected with AAVs were treated with CCl4 or CCl4 +ICM as described above and sacrificed. […]

In a further test the target is T3, HMGB1 protein (Mus musculus, UniProt P63158).
T3 construct: Total protein lysates were prepared from livers and cells in lysis buffer; from tissue; host or cells: mouse liver
T3 sequence (P63158 1-215): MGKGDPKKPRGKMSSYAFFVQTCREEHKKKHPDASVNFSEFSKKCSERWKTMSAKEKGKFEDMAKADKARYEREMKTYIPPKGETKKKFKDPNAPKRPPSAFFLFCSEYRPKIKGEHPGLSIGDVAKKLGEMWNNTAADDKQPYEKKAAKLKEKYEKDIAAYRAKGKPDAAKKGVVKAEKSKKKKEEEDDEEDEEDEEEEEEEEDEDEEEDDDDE
Description: Western blot of HMGB1 protein in liver of CCl4-treated mice. Type of test: in vivo. The settings on record: CCl4+ICM (FIG. 16). The protocol: as §1

Take `CC1(C)Oc2cc(O)ccc2C2C1=CCn1c(=O)n(-c3ccccc3)c(=O)n12` (stereo not drawn) [ICM, inflachromene]: the HMGB2 protein entry on HMGB2 (Huh7 cells) and at HMGB2 (LX-2 cells) was “dose-dependently decreased” throughout. For the same compound, the “cytoplasm HMGB2 protein” value on HMGB2 (LX2 cells (FIG. 5C)) is listed as “reduces cytoplasm HMGB2 protein”. Further, the “liver HMGB2 protein induced by CCl4” value at HMGB2 protein (CCl4 mice treated with ICM, Western blot) is “decreases; also recorded: blocked by ICM; also recorded: reduction in liver HMGB2 protein”. The “selectivity HMGB2 protein versus HMGB1 protein” value at HMGB2 protein (mouse liver, CCl4+ICM (FIG. 16)) is “more selective to downregulate HMGB2 protein”. Further, at HMGB1 protein, the HMGB1 protein entry was “less effect on HMGB1 protein”.
